# Experiments:
# [1] = molecular target: T1, Pseudomonas PBP 3 (Pseudomonas aeruginosa, UniProt G3XD46); experiment: biochemical; type: binding
# T1 construct: endogenous in cells
# Experimental: The phrase “selective and high affinity PBP binder” refers to a PBP binder which binds to only one PBP with very high affinity. In general, the term “selective and high affinity PBP binder” also includes those binders where a substantial fraction of binder selectively binds to only one PBP with high affinity.
# The reaction mixtures were then denatured with 20 μl each of SDS-denaturing solution at 100° C. for 3 min PBPs were separated through 10% SDS polyacrylamide gel electrophoresis (Bio-Rad Laboratories, Hercules, Calif.). The protein gels were rinsed in water immediately after electrophoresis.
# [2] = tested on: Acinetobacter baumannii NCTC 13304 producing carbapenem hydrolyzing Class D OXA enzyme (OXA 27); experiment: Time kill study (viability count); type: cell-based; conditions: Cefepime 8 μg/ml, Compound of Formula (III) 8 μg/ml, Imipenem 16 μg/ml
# [3] = tested on: E. coli ATCC 25922; experiment: Time kill study (viability count); type: cell-based; conditions: for Bacterial count: Compound of Formula (III) 2 μg/ml, alone or combined
# [4] = tested on: P. aeruginosa PAO1; experiment: Time kill study (viability count); type: cell-based; conditions: for Bacterial count: Compound of Formula (III) 4 μg/ml, alone or combined
# [5] = tested on: Pseudomonas aeruginosa NCTC 13437 producing carbapenem hydrolyzing MBL (VIM 10) & Class A (VEB1); experiment: Time kill study (viability count); type: cell-based; conditions: Cefepime 8 μg/ml, Compound of Formula (III) 8 μg/ml, Imipenem 16 μg/ml
# [6] = tested on: K pneumoniae J 101; experiment: MIC determination (agar dilution, CLSI); type: cell-based; conditions: K pneumoniae J 101 (TEM1, SHV12, OMP); standalone
# Experimental: (§1) In a typical procedure for determining MIC values, overnight grown bacterial cultures were diluted appropriately and inoculated on the agar media containing doubling concentrations of the test compounds. Observation for growth or no growth was performed after 16-20 hours of incubation at 35±2° C. in ambient air. The overall procedure was performed as per Clinical and Laboratory Standards Institute (CLSI) recommendations (Clinical and Laboratory Standards Institute (CLSI), Performance Standards for Antimicrobial Susceptibility Testing, 20th Informational Supplement, M 100-S20, Volume 30, No. 1, 2010).
# [7] = tested on: K pneumoniae J 102; experiment: MIC determination (agar dilution, CLSI); type: cell-based; conditions: K pneumoniae J 102 (TEM1, SHV5, OMP); standalone
# Experimental: as §1
# [8] = tested on: K pneumoniae J 104; experiment: MIC determination (agar dilution, CLSI); type: cell-based; conditions: K pneumoniae J 104 (TEM1, SHV11, CTX-M, OMP); standalone
# Experimental: as §1
# [9] = tested on: K pneumoniae J 105; experiment: MIC determination (agar dilution, CLSI); type: cell-based; conditions: K pneumoniae J 105 (TEM1, SHV2, CTX-M, OMP); standalone
# Experimental: as §1
# [10] = tested on: MDR P. mirabilis G 186 producing NDM & TEM β-lactamases; experiment: Time kill study at MFC and MSC; type: cell-based; conditions: for Bacterial count: Cefepime 8 mcg/ml (MFC), Compound of Formula (III) 0.25 mcg/ml (MSC), Imepenem 8 mcg/ml
# Experimental: The synergistic killing effect of the combinations according to invention was studied by performing time kill studies. In a typical time kill study, the freshly grown cultures were diluted to the required cell density (initial starting inoculum) in Cation adjusted Muller Hinton broth medium (BD, USA). The antibacterial agents (either alone or in combination) at the required concentrations were added into the culture-containing medium. The samples were incubated under shaking condition (120 rpm) at 37° C. Enumeration of viable bacterial count was done every 2 hour by diluting in normal saline and plating on to the Tryptic Soya Agar plates (BD, USA). The plates were incubated for 24 hours to arrive at the viable bacterial count. The results are expressed in terms of Log CFU per ml. In general, the decrease of 1 Log CFU/ml, corresponds to 90% killing of bacteria. Similarly, 2 Log CFU/ml reductions indicates to 99% killing of bacteria and 3 Log CFU/ml reductions is equal to 99.9% killing of bacteria.
# [11] = tested on: P. mirabilis G 186; experiment: Minimum filamentation / spheroplasting concentration; conditions: P. mirabilis G 186 (NDM, TEM); minimum spheroplasting concentration
# Source text: The term “MSC” as used herein refers to minimum spheroplasting concentration, which is the minimum concentration of an antibacterial agent at which about 80% of bacterial cells covert into spheroplasts.
# The term “MFC” as used herein refers to minimum filamentation concentration, which is the minimum concentration of an antibacterial agent at which about 80% of bacterial cells get elongated to form filament like structures.
# T1 sequence (G3XD46 whole entry): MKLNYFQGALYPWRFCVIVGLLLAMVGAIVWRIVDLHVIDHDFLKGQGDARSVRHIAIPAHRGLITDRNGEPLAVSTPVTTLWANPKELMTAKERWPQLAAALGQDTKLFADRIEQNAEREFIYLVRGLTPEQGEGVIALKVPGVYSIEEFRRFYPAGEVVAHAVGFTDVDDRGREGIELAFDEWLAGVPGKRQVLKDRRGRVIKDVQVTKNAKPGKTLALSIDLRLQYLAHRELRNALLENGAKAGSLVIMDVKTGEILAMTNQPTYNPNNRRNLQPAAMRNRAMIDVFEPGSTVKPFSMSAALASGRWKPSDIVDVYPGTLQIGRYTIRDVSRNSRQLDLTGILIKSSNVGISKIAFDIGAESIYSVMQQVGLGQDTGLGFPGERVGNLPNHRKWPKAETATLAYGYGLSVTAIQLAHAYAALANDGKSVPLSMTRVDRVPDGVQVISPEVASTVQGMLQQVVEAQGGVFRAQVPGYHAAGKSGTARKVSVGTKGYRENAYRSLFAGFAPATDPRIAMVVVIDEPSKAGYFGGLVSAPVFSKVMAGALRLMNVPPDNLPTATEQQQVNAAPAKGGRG
smiles,measurement,setting,value
"O=C(NNC(=O)[C@@H]1CC[C@@H]2CN1C(=O)N2OS(=O)(=O)O)[C@@H]1CCCNC1 [Compound of Formula (III), trans-(2S,5R)-sulfuric acid mono-[2-(N′—[(R)-piperidin-3-carbonyl]-hydrazino Carbonyl)-7-oxo-1,6-diaza-bicyclo[3.2.1]oct-6-yl] Ester]",IC50,[1],> 10.2 µM
same,Bacterial count,[2]; 0 hour,6.3 log (CFU/ml)
same,Bacterial count,[2]; 2 hours,7.5 log (CFU/ml)
same,Bacterial count,[2]; 4 hours,7.9 log (CFU/ml)
same,Bacterial count,[2]; 6 hours,8.1 log (CFU/ml)
same,Bacterial count,[2]; 8 hours,8.1 log (CFU/ml)
same,Bacterial count,"[3]; 0 hour, Aztreonam 1 μg/ml",7.47 log (CFU/ml)
same,Bacterial count,"[3]; 0 hour, Cefoxitin 1 μg/ml",7.47 log (CFU/ml)
same,Bacterial count,"[3]; 0 hour, Cefsulodin 16 μg/ml",7.47 log (CFU/ml)
same,Bacterial count,"[3]; 2 hours, Aztreonam 1 μg/ml",7.85 log (CFU/ml)
same,Bacterial count,"[3]; 2 hours, Cefoxitin 1 μg/ml",7.85 log (CFU/ml)
same,Bacterial count,"[3]; 2 hours, Cefsulodin 16 μg/ml",7.85 log (CFU/ml)
same,Bacterial count,"[3]; 4 hours, Aztreonam 1 μg/ml",7.88 log (CFU/ml)
same,Bacterial count,"[3]; 4 hours, Cefoxitin 1 μg/ml",7.88 log (CFU/ml)
same,Bacterial count,"[3]; 4 hours, Cefsulodin 16 μg/ml",7.88 log (CFU/ml)
same,Bacterial count,"[3]; 6 hours, Aztreonam 1 μg/ml",8.26 log (CFU/ml)
same,Bacterial count,"[3]; 6 hours, Cefoxitin 1 μg/ml",8.26 log (CFU/ml)
same,Bacterial count,"[3]; 6 hours, Cefsulodin 16 μg/ml",8.26 log (CFU/ml)
same,Bacterial count,"[3]; 24 hours, Aztreonam 1 μg/ml",8.34 log (CFU/ml)
same,Bacterial count,"[3]; 24 hours, Cefoxitin 1 μg/ml",8.34 log (CFU/ml)
same,Bacterial count,"[3]; 24 hours, Cefsulodin 16 μg/ml",8.34 log (CFU/ml)
same,Bactericidal action (in words),"[3]; E. coli ATCC 25922, standalone or combination, Tables 3 to 5",did not exhibit any significant bactericidal action
same,Bacterial count,"[4]; 0 hour, Aztreonam 2 μg/ml",5.74 log (CFU/ml)
same,Bacterial count,"[4]; 0 hour, Cefsulodin 2 μg/ml",6.81 log (CFU/ml)
same,Bacterial count,"[4]; 2 hours, Aztreonam 2 μg/ml",6.5 log (CFU/ml)
same,Bacterial count,"[4]; 2 hours, Cefsulodin 2 μg/ml",7.23 log (CFU/ml)
same,Bacterial count,"[4]; 4 hours, Aztreonam 2 μg/ml",7.6 log (CFU/ml)
same,Bacterial count,"[4]; 4 hours, Cefsulodin 2 μg/ml",7.18 log (CFU/ml)
same,Bacterial count,"[4]; 6 hours, Aztreonam 2 μg/ml",7.9 log (CFU/ml)
same,Bacterial count,"[4]; 6 hours, Cefsulodin 2 μg/ml",7.5 log (CFU/ml)
same,Bacterial count,"[4]; 24 hours, Aztreonam 2 μg/ml",8.8 log (CFU/ml)
same,Bacterial count,"[4]; 24 hours, Cefsulodin 2 μg/ml",8.2 log (CFU/ml)
same,Bactericidal action (in words),"[4]; P. aeruginosa PAO1, standalone or combination, Tables 6 and 7",did not exhibit any bactericidal action
same,Bacterial count,[5]; 0 hour,6.0 log (CFU/ml)
same,Bacterial count,[5]; 2 hours,6.55 log (CFU/ml)
same,Bacterial count,[5]; 4 hours,5.9 log (CFU/ml)
same,Bacterial count,[5]; 6 hours,5.81 log (CFU/ml)
same,Bacterial count,[5]; 12 hours,6.2 log (CFU/ml)
same,MIC,[6],> 32 mg/L
same,MIC,[7],> 32 mg/L
same,MIC,[8],> 32 mg/L
same,MIC,[9],> 32 mg/L
same,Bacterial count,[10]; 0 hour,6.58 Log10 CFU/ml
same,Bacterial count,[10]; 2 hours,7.2 Log10 CFU/ml
same,Bacterial count,[10]; 4 hours,7.7 Log10 CFU/ml
same,Bacterial count,[10]; 6 hours,8.43 Log10 CFU/ml
same,Bacterial count,[10]; 8 hours,8.6 Log10 CFU/ml
same,Antibacterial activity (in words),"[10]; P. mirabilis G 186, at MFC and MSC concentration, Table 14",did not exhibit antibacterial activity
same,MSC,[11],0.25 µg/mL

# Source: US20170172994A1, “COMPOSITIONS AND METHODS FOR TREATING BACTERIAL INFECTIONS” (WOCKHARDT LIMITED, priority 2013, published 2017)
